# According to US20160089379A1, “TREATMENT OF NEUROLOGICAL AND OTHER DISORDERS” (PALMAYA PTY LTD, priority 2013, published 2016):
# Read-outs that look alike come from different tables or passages of the source.
# What was measured:
# [1] = tested on: patients; experiment: Naltrexone therapy in approximately 6,000 patients; format: in vivo, human
# Procedure: Our experiments in approximately 6,000 patients treated with naltrexone (release rate of between 0.5 to 20 mg/day) or 1 to 100 micrograms per hour, with similar release rates of antagonists, has confirmed improvements in multiple sclerosis in our patients and also in crohn's disease which are both inflammatory conditions. […] These experiments showing blocking of dopamine is why the combination of right hand isomer of naltrexone and flumazenil in the dose range described is the ideal treatment to arrest multiple sclerosis.
# [2] = tested on: human adult volunteers; experiment: Infusion of flumazenil for treatment of benzodiazepine addiction; format: in vivo
# [3] = tested on: epilepsy patient; experiment: Treatment of epilepsy patient with flumazenil; format: in vivo, human; details: 170 micrograms per hour, day following treatment
# [4] = tested on: patients
# [5] = tested on: release of dopamine; details: rats; combination of flumazenil and benzodiazepines; cited from earlier work
# [6] = tested on: patient suffering from Parkinson's disease; experiment: Finger tap test (one minute) and L-dopa intake in a Parkinson's disease patient; format: in vivo, human; details: for Tapping score: flumazenil 170 micrograms per hour plus 10 mg of valium per day
# Procedure: A study was conducted to test the theory that the loss of function of neuronal cells from hyperpolarisation in a patient suffering from Parkinson's disease could be reversed, improved or corrected. […] In addition, the patient was also given 10 mg of valium per day to facilitate the “sick cells” in the substantia niagra region of the brain stem, being able to produce their own dopamine again.
# The patient was asked to perform the “finger tap test”, which is an indicator of the extent of Parkinson's disease. Briefly, the patient is asked to tap an index finger as fast as possible for one (1) minute (CNS tap test). The greater the number of taps per minute, the greater the improvement.
# The following results were observed over four hours of treatment to the patient.
# [7] = tested on: patients; details: intravenous or oral bolus doses as high as 20,000 micrograms; work of others; cited from earlier work
# [8] = Solubility of flumazenil; format: physicochemical
# [9] = tested on: idiopathic hypersomnia patients; experiment: Treatment of idiopathic hypersomnia patients with flumazenil; format: in vivo, human
# Text: We tested this model of disease again in two idiopathic hypersomnia patients. Both individuals had severe sleep drunkenness for over 18 months (Patient 1) and for over 13 years (Patient 2). We believe this illness to be due to the damage in the balance between an initial insult that had caused hyperpolarisation of cells which made them nonresponsive to benzodiazepine, as the prolonged presence of high levels of endogenous benzodiazepines continues long after the initial insult or disease. The homeostatic mechanisms that balance the delivery of dopamine to their cells responded to the damaged benzodiazepine receptors by maintaining the endogenous benzodiazepines at a high level in order to get some benzodiazepines to their cells. This inadequate dopamine delivered by response to valium was not occurring when we met these patients and so their cells remained unable to conduct currents and also unable to recover from their hyperpolarisation in the absence of dopamine.
# […]. Patient 2 was treated in a similar way.
# This is in contrast with an existing patient treated by the Emery Research Group, who indicated a dose of approximately 2 mg per body mass unit per day would be required. For P1, with a BMI of 34 this would equate to 68 mg per day, 17 times what they were given during the infusion.
# During the infusion and the two weeks prior, P1 kept a record of sleepiness and mood, upon awaking, mid-awake and pre-sleep on a scale of 0-10. For sleepiness 0 represented an unavoidable need to sleep, while 10 is feeling awake and rested. Similarly for mood, 0 represents rock bottom, while 10 was chirpy, happy and cheerful.
# [10] = P1, 4 day subcutaneous infusion, 4 mg per day
# [11] = P1, post treatment, scale of 0-10, 10 is feeling awake and rested
# [12] = P1, post treatment, scale of 0-10, 10 was chirpy, happy and cheerful
# [13] = P2, before dose was doubled to 8 mg/day
# [14] = release rate of between 0.5 to 20 mg/day or 1 to 100 micrograms per hour
smiles,measurement,setting,value
"O=C1CC[C@@]2(O)[C@H]3Cc4ccc(O)c5c4[C@@]2(CCN3CC2CC2)[C@H]1O5 (single isomer, unassigned) [L isomer of naltrexone]",dopamine effects,"[1]; human, in vivo",reduces dopamine effects
CCOC(=O)c1ncn2c1CN(C)C(=O)c1cc(F)ccc1-2 [flumazenil],relief in those who had damaged their benzodiazepine receptors,"[2]; 1-8 mg of flumazenil per day, usually within hours of commencing",gained relief
same,symptoms treated by benzodiazepines,"[2]; flumazenil infusions, within hours, maintained for up to 3 to 4 days or longer",marked improvement
same,safety of long term flumazenil in humans,"[2]; more than 500 patients, intravenous, subcutaneous and implant delivery",safe for use in human beings
same,tolerance of light (light activating peti mal episodes),[3],able to go for a walk in the sun for an hour with no hat or sunglasses
same,fits (peti mal episodes),"[3]; none since (48 hour), previously at least 4-5 times each day",no fits
same,calmness and the ability to relate to others,"[4]; 20 to 300 microgram per hour, subcutaneous and intravenous infusions, within 3 days (5 days at the lower end)",significant improvement
same,"extent of changes in those with depression, anxiety and fear",[4]; at the 20 mg/hour end of the scale,less
same,"extent of changes in those with depression, anxiety and fear",[4]; beyond 40 mg/hour,very marked
same,"confidence in those with depression, anxiety and fear",[4]; during the infusion treatment,showed a confidence in themselves
same,depression and anxiety symptoms in patients previously diagnosed with psychosis,[4]; more than 20 of the 500,lifted in their depression and in their anxiety symptoms
same,alertness during infusion treatment,[4]; most of the 500,an increase in problem solving and reported a decrease in distractibility
same,sleep,"[4]; nearly all of the 500, one patient reported difficulty getting to sleep",return to natural sleep
same,release of dopamine,[5],enhance the release of dopamine
same,Tapping score,[6]; 0 hours from infusion (baseline),40 taps per minute
same,Tapping score,[6]; 2 hours from infusion,50 taps per minute
same,Tapping score,[6]; 3 hours from infusion,60 taps per minute
same,Tapping score,[6]; 4 hours from infusion,73 taps per minute
same,L-dopa medication dosage after commencing infusion treatment,"[6]; reduced from 1500 mg/day within days of commencing infusion, with valium",250 mg/day
same,adverse effects of bolus doses,[7],anxiety attacks or fits
same,solubility,"[8]; pH 1.2, simulated gastric fluid",3000 µg/mL
same,solubility,"[8]; pH 7.5, aqueous buffer, pH of 7.5",600 µg/mL
same,sleep drunkenness,"[9]; 4 mg per day, within 3 days, both patients",full relief
same,"concentration, memory and attention span",[9]; [10],marked improvement
same,symptoms of IH reported during the infusion,[9]; [10],"not having experienced any sleep drunkenness, excessive day time sleepiness, heart palpitations or cold hands and feet"
same,Stanford Sleepiness Scale (SSS) score,"[9]; P1, at completion of flumazenil treatment, 6 out of a possible 8 at the time of treatment",3
same,Epworth Sleepiness Scale (ESS) score,"[9]; P1, at completion of flumazenil treatment, 21 of a possible 24 at the time of treatment",4
same,Awaking sleepiness,[9]; [11],6.2 ± 0.8
same,Mid-awake sleepiness,[9]; [11],6.8 ± 0.5
same,Pre-sleep sleepiness,[9]; [11],5.8 ± 1.7
same,Awaking mood,[9]; [12],8.8 ± 0.4
same,Mid-awake mood,[9]; [12],8.8 ± 0.5
same,Pre-sleep mood,[9]; [12],8.5 ± 0.6
same,mental clarity of second patient (P2),[9]; [13],increase in mental clarity
same,tiredness and napping of second patient (P2),[9]; [13],still been very tired and napping through the day
same,health status of Patient 1,"[9]; flumazenil infusion at 2 mg/day by implant, within 7 days",full return to normal health
O=C1CC[C@@]2(O)[C@H]3Cc4ccc(O)c5c4[C@@]2(CCN3CC2CC2)[C@H]1O5 [naltrexone],crohn's disease,[1]; [14],improvements
same,multiple sclerosis,[1]; [14],improvements
